Measured values taken from US20240217947A1, “Morpholinylquinazoline Compound, Pharmaceutical compositions thereof and Use Thereof” (SHANGHAI YINGLI PHARMACEUTICAL CO., LTD, priority 2022, published 2024).

Legend:
[1] = molecular target: PI3Kα (Homo sapiens, UniProt P42336); experiment: PI3Kα enzyme activity inhibition IC50 evaluation assay (ADP-Glo Kinase Assay); format: biochemical; details: ATP 25 μM, PIP2 50 μg/mL, 1 hour room temperature, read-out: PI3K-α IC50
Description: Effec Example 1 IC50 evaluation assay for PI3Kα, PI3Kδ, PI3Kβ and PI3Kγ enzyme activity inhibition
The experiment was performed using the ADP-Glo Kinase Assay kit, following the instructions. The following buffer solutions were prepared: 50 mM HEPES, pH 7.5, 3 mM MgCl2, 1 mM EGTA, 100 mM NaCl, 0.03% CHAPS, 2 mM DTT. The test compound samples were dissolved in DMSO and added to the screening system at a certain starting concentration such as 10 μM, 3-fold dilution, while setting up both DMSO control and no kinase control. The optimal concentrations of PI3Kα, PI3Kδ, PI3Kβ and PI3Kγ enzymes, substrate (PIP2) and ATP were prepared in buffer. The enzyme reaction system included: buffer, ATP 25 μM, kinase substrate (PIP2, 50 μg/mL), kinases [PI3Kα (0.15 μg/mL), PI3Kδ (1.2 μg/mL), PI3Kβ (0.3 μg/mL) and PI3Kγ (2.5 μg/mL)], etc. The reaction system was reacted at room temperature for 1 hour. The reaction was terminated by adding a termination reagent (ADP-Glo reagent, 5 μL), and the ADP content in the system was detected using a detection reagent (Kinase Detection Reagent, 10 μL). Signal data were collected using the Envision instrument. Calculate the percentage of (%) inhibition according to the following formula: % inhibition=(DMSO control signal value−sample signal value)/(DMSO control signal value−no-kinase control signal value). The IC50 value was obtained by fitting the curve using the formula Y=Bottom+(Top-Bottom)/(1+(IC50/X)^HillSlope).

[2] = molecular target: T1, HDAC6 (Homo sapiens, UniProt Q9UBN7); experiment: HDAC6 enzyme activity inhibition IC50 evaluation experiment; format: biochemical; details: HDAC6 5 nM, acetylated peptide 11 μM, trypsin, fluorescence
T1 sequence (Q9UBN7 1-1215): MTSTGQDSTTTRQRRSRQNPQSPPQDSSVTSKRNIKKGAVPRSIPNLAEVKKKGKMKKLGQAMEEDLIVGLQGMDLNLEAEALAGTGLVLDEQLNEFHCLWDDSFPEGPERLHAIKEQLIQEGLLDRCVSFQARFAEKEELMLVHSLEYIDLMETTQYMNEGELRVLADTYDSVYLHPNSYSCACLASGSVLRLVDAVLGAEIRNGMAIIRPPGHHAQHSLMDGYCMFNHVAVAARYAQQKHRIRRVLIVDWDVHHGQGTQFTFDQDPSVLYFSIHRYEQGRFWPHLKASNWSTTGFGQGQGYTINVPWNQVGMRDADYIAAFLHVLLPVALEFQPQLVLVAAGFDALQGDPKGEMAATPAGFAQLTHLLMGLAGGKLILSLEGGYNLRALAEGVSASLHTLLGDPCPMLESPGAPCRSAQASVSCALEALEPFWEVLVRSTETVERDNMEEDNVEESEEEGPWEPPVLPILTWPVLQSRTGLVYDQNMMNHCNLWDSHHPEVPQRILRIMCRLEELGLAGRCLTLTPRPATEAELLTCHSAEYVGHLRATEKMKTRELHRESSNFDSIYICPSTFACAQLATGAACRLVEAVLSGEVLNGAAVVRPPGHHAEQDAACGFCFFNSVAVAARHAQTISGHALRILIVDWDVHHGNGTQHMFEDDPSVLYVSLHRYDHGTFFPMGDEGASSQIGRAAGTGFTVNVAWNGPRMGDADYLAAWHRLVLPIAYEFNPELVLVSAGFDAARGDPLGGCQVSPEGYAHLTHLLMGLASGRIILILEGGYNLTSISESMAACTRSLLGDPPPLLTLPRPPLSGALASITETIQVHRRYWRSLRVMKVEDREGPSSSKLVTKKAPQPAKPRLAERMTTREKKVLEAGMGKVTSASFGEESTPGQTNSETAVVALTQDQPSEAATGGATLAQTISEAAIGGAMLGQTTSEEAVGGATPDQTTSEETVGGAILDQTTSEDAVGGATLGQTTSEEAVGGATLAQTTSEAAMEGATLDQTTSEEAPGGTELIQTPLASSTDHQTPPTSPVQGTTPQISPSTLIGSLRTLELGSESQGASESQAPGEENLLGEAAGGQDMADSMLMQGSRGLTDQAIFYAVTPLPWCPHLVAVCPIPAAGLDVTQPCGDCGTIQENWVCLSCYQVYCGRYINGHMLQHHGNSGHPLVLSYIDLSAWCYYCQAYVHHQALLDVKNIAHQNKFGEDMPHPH
Description: Effect Example 2 HDAC1, HDAC2, HDAC3, HDAC6 enzyme activity inhibition IC50 evaluation experiment
Buffer solution (50 mM Tris 7.5, 0.01% Tween-20, 50 mM NaCl) was prepared according to the kit instructions, and the enzyme solution and substrate solution (acetylated peptide with the addition of trypsin) were prepared using the buffer solution. The test compound samples were dissolved with DMSO and added to the screening system at a certain starting concentration such as 10 μM, 3-fold dilution, while setting up a DMSO control and no-enzyme control. The enzyme reaction system includes: buffer, enzyme [final concentration: HDAC1=10 nM, HDAC2=4 nM, HDAC3=7 nM, HDAC6=5 nM], substrate (acetylated peptide) [final concentration: Peptide(HDAC1)=8 μM, Peptide(HDAC2)=10 μM, Peptide(HDAC3)=5 μM, Peptide(HDAC6)=11 μM], trypsin [final concentration: Trypsin(HDAC1,2,3)=0.05 μM, Trypsin(HDAC6)=0.1 μM], etc. The enzymes and compounds were reacted at room temperature for 15 min. After adding the substrate and Trypsin, centrifugation was performed for 1 min, and the fluorescence signal data (excitation wavelength 355 nM/emission wavelength 460 nm) was read continuously for 60 min using Envision, and the linear reaction segment was selected to obtain the slope and thus calculate the inhibition rate at that concentration. The IC50 value was obtained by fitting the curve using the formula Y=Bottom+(Top-Bottom)/(1+(IC50/X)^HillSlope).

PI3Kα, sequence (P42336 whole entry, species assumed): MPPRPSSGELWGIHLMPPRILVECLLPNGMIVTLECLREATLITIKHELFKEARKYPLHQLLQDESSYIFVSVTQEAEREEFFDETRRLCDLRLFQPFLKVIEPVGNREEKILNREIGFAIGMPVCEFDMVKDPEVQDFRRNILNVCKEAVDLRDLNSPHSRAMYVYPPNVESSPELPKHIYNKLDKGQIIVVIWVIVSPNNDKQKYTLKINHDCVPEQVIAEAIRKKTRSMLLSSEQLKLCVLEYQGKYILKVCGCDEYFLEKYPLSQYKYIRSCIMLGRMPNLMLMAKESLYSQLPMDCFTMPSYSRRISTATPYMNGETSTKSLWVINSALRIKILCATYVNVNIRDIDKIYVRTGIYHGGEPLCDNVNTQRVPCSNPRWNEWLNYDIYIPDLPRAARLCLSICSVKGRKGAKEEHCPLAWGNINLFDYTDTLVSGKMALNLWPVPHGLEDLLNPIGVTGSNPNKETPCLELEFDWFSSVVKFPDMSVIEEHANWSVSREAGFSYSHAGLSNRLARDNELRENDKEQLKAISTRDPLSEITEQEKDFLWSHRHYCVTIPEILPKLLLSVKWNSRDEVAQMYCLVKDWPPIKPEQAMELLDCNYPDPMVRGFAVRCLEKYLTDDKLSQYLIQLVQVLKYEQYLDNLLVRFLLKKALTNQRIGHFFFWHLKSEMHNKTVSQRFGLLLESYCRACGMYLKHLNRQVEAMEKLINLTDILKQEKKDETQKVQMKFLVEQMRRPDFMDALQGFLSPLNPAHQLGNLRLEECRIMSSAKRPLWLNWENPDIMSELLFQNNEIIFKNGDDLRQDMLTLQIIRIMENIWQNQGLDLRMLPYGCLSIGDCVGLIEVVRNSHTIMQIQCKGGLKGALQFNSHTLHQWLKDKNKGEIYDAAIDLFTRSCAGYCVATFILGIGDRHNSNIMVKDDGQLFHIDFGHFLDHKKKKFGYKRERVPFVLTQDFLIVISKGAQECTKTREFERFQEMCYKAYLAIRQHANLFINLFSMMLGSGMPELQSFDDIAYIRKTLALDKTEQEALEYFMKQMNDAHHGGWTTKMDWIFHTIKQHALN
PI3Kα, sequence (P27986 whole entry partner, species assumed): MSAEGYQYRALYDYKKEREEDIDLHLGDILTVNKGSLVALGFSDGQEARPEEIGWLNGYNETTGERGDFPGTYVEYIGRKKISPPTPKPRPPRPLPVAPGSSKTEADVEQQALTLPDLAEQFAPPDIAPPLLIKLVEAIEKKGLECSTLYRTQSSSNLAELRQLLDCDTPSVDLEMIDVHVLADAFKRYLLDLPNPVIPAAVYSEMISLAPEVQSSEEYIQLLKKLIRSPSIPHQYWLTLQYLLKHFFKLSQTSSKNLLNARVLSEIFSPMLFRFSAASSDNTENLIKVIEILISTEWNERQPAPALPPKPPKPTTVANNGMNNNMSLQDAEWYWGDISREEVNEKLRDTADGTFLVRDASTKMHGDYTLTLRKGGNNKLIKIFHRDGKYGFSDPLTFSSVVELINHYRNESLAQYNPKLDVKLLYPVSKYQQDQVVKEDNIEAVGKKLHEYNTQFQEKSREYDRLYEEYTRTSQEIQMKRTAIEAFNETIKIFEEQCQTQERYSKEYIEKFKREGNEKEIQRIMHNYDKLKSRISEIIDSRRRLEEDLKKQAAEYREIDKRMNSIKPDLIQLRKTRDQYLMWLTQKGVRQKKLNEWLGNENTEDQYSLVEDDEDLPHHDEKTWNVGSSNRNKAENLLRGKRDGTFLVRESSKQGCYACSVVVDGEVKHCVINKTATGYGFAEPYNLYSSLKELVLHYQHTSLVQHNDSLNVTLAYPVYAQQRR

IC50 [1]	IC50 [2]	Compound
1000 to 10000 nM	≤ 10 nM	COc1ncc(-c2nc(N3CCOCC3)nc3c(OCCCCCCC(=O)NO)cc(F)cc23)cc1NS(C)(=O)=O [Compound 9]
100 to 1000 nM	10 to 100 nM	COc1ncc(-c2nc(N3CCOCC3)nc3c(OC4CCN(c5ncc(C(=O)NO)cc5F)CC4)cc(F)cc23)cc1NS(C)(=O)=O [Compound 30]
–	10 to 100 nM	COc1ncc(-c2nc(N3CCOCC3)nc3c(OC4CCN(c5ccc(C(=O)NO)cn5)CC4)cc(F)cc23)cc1NS(C)(=O)=O [Compound 40]
–	100 to 1000 nM	COc1ncc(-c2nc(N3CCOCC3)nc3c(OC4CCN(c5ncc(C(=O)NO)cn5)CC4)cc(F)cc23)cc1NS(C)(=O)=O [Compound 39]
100 to 1000 nM	10 to 100 nM	COc1ncc(-c2nc(N3CCOCC3)nc3c(CN4CCN(c5ncc(C(=O)NO)cn5)CC4)cc(F)cc23)cc1NS(C)(=O)=O [Compound 7]
